Test results as given in patent US9394297B2, “Amides as pim inhibitors” (AMGEN INC., priority 2012, dated 2016).
Counter-ions that a name gives are not always drawn.

How the values were obtained:
KMS-12-BM cell lines = assay: KMS12 #2 flow cytometry assay (phospho-BAD Ser112); assay type: cell-based; details: Homo sapiens, 110 min; KMS-12-BM cells, pBAD Ser112 by flow cytometry, 110 min with compound; read-out: KMS-12-Flow IC50 IP
Pim-1 = Pim-1 (Homo sapiens (Human), UniProt P11309); assay: Pim-Mn enzyme assay (HTRF, 384-well), Pim-1; assay type: biochemical; details: Pim-1 enzyme 5 pM, ATP 1.5 μM, BAD (S112) 0.5 μM, HTRF, 22-point curve; read-out: Pim-1-Mn IC50 IP
Sequence of Pim-1 (P11309 whole entry): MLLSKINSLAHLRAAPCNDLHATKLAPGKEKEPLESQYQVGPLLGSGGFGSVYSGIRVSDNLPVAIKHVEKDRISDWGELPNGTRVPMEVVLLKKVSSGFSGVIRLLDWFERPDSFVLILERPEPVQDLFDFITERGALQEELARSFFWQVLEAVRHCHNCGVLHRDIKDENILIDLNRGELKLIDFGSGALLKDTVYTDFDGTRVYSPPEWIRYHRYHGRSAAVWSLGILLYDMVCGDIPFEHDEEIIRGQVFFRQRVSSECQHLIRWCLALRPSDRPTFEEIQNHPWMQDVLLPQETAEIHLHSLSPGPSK

Pim-2 = Pim-2 (Homo sapiens (Human), UniProt Q9P1W9); assay: Pim-Mn enzyme assay (HTRF, 384-well), Pim-2; assay type: biochemical; details: Pim-2 enzyme 0.5 pM, ATP 1.5 μM, BAD (S112) 0.5 μM, HTRF, 22-point curve; read-out: Pim-2-Mn IC50 IP
Sequence of Pim-2 (Q9P1W9 whole entry): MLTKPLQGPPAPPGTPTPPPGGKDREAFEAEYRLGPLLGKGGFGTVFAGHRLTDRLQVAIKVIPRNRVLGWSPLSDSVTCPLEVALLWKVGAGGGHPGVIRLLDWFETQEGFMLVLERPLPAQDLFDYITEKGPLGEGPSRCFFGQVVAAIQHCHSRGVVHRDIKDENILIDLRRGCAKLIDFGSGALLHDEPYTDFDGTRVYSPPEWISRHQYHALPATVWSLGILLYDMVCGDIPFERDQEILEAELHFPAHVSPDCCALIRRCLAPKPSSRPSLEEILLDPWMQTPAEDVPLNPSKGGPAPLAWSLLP

Structure (SMILES) | IC50 (KMS-12-BM cell lines) [nM] | IC50 (Pim-1) [nM] | IC50 (Pim-2) [nM]
CC(C)Nc1nc2c(-c3cc4c([nH]3)CCNC4=O)cccc2c(=O)n1-c1ccccn1 [Example 415, 2-((1-methylethyl)amino)-8-(4-oxo-4,5,6,7-tetrahydro-1H-pyrrolo[3,2-c]pyridin-2-yl)-3-(2-pyridinyl)-4(3H)-quinazolinone] | 5860 | 10.9 | 29.4
Cc1nc2cccc(-c3cc4c([nH]3)CCN(C(=O)OC(C)(C)C)C4=O)c2nc1NC(C)(C)C [Example 291, tert-butyl 2-(3-(tert-butylamino)-2-methylquinoxalin-5-yl)-4-oxo-6,7-dihydro-1H-pyrrolo[3,2-c]pyridine-5(4H)-carboxylate] | 7920 | 99 | 65.2
Cc1nc2cccc(-c3cc4c([nH]3)CCCNC4=O)c2nc1NC(C)(C)C [Example 305, 2-(3-(tert-butylamino)-2-methylquinoxalin-5-yl)-5,6,7,8-tetrahydropyrrolo[3,2-c]azepin-4(1H)-one] | 1640 | 2.63 | 
C[C@H]1NC(=O)c2cc(-c3cccc4c(=O)[nH]c(N(C)C(C)(C)C)nc34)[nH]c21 [Example 407, 2-(tert-butyl(methyl)amino)-8-((6R)-6-methyl-4-oxo-1,4,5,6-tetrahydropyrrolo[3,4-b]pyrrol-2-yl)-4(3H)-quinazolinone] | 144 |  | 0.4
Cc1nc2cccc(-c3cc4c([nH]3)CCNC4=O)c2nc1NC(C)(C)CNC(=O)OC(C)(C)C [Example 339, tert-butyl (2-methyl-2-((3-methyl-8-(4-oxo-4,5,6,7-tetrahydro-1H-pyrrolo[3,2-c]pyridin-2-yl)-2-quinoxalinyl)amino)propyl)carbamate] | 2520 | 50.8 | 
CC(=O)N1CCc2[nH]c(-c3cccc4nc(C)c(NC(C)(C)C)nc34)cc2C1=O [Example 315, 5-acetyl-2-(3-(tert-butylamino)-2-methylquinoxalin-5-yl)-6,7-dihydro-1H-pyrrolo[3,2-c]pyridin-4(5H)-one] | 895 | 35.2 | 

Further lines, results first:

IC50 (KMS-12-BM cell lines) [nM] | IC50 (Pim-1) [nM] | IC50 (Pim-2) [nM] | Structure (SMILES)
527 | 3.4 | 1.73 | Cc1nc2cccc(-c3cc4c([nH]3)CCNC4=O)c2nc1N[C@H]1C[C@H](O)C1 [Example 442, 2-(3-((trans-3-Hydroxycyclobutyl)amino)-2-methylquinoxalin-5-yl)-6,7-dihydro-1H-pyrrolo[3,2-c]pyridin-4(5H)-one]
76 | 0.199 | 0.193 | COCCn1c(NC(C)(C)C)nc2c(-c3cc4c([nH]3)[C@@H](C)NC4=O)cccc2c1=O [Example 459, 2-(tert-butylamino)-3-(2-methoxyethyl)-8-((6R)-6-methyl-4-oxo-1,4,5,6-tetrahydropyrrolo[3,4-b]pyrrol-2-yl)-4(3H)-quinazolinone]
47 | 0.1 | 0.24 | C[C@H]1NC(=O)c2cc(-c3cccc4c(=O)[nH]c(NC(C)(C)C)nc34)[nH]c21 [Example 408, 2-(tert-butylamino)-8-((6R)-6-methyl-4-oxo-1,4,5,6-tetrahydropyrrolo[3,4-b]pyrrol-2-yl)-4(3H)-quinazolinone]
30.8 |  | 0.169 | Cn1c(NC(C)(C)C)nc2c(-c3cc4c([nH]3)CCNC4=O)cccc2c1=O [Example 448, 2-(tert-butylamino)-3-methyl-8-(4-oxo-4,5,6,7-tetrahydro-1H-pyrrolo[3,2-c]pyridin-2-yl)-4(3H)-quinazolinone]
3000 | 0.347 |  | Cc1nc2cccc(-c3cc4c([nH]3)CCNC4=O)c2nc1N[C@H]1C[C@@H](N)C1 [Example 435, 2-(3-((cis-3-aminocyclobutyl)amino)-2-methylquinoxalin-5-yl)-6,7-dihydro-1H-pyrrolo[3,2-c]pyridin-4(5H)-one hydrochloride]
